Measurements as given in patent US9540385B2, “Pyrrolopyrimidine compounds as kinase inhibitors” (Pharmacyclics LLC, priority 2012, dated 2017).

Assays:
Format in all cases: biochemical
Conditions in all cases: kinase assay by one of methods A, B or C
[1] = biological target: EGFR (Homo sapiens, UniProt P00533); test: Inhibition of a panel of kinases: EGFR
Procedure: (§1) Btk kinase activity is determined using a time-resolved fluorescence resonance energy transfer (TR-FRET) methodology. Measurements are performed in a reaction volume of 50 μL using 96-well assay plates. Kinase enzyme, inhibitor, ATP (at the Km for the kinase), and 1 μM peptide substrate (Biotin-AVLESEEELYSSARQ-NH2) are incubated in a reaction buffer composed of 20 mM Tris, 50 mM NaCl, MgCl2 (5-25 mM depending on the kinase), MnCl2 (0-10 mM), 1 mM DTT, 0.1 mM EDTA, 0.01% bovine serum albumin, 0.005% Tween-20, and 10% DMSO at pH 7.4 for one hour. The reaction is quenched by the addition of 1.2 equivalents of EDTA (relative to divalent cation) in 25 μL of 1× Lance buffer (Perkin-Elmer). Streptavidin-APC (Perkin-Elmer) and Eu-labeled p-Tyr100 antibody (Perkin-Elmer) in 1× Lance buffer are added in a 25 μL volume to give final concentrations of 100 nM and 2.5 nM, respectively, and the mixture is allowed to incubate for one hour. The TR-FRET signal is measured on a multimode plate reader with an excitation wavelength (λEx) of 330 nm and detection wavelengths (λEm) of 615 and 665 nm. Activity is determined by the ratio of the fluorescence at 665 nm to that at 615 nm. For each compound, enzyme activity is measured at various concentrations of compound. Negative control reactions are performed in the absence of inhibitor in replicates of six, and two no-enzyme controls are used to determine baseline fluorescence levels. Inhibition constants, Ki(app), ware obtained using the program BatchKi (Kuzmic et al. (2000), Anal. Biochem. 286:45-50). IC50s are obtained according to the equation: IC50={Ki(app)/(1+[ATP]/Km^ATP)}+[E]total/2;
(§2) For all kinases, [ATP]=Km^ATP, [Btk]total=0.5 nM and [Lck]total=6 nM.
(§3) Kinase activity is measured in vitro using electrophoretic mobility shift assay. The kinase reactions are assembled in a total volume of 25 μL in 384 well plates. The reactions comprise: BTK enzyme (1 nM, N-terminal His6-tagged, recombinant, full-length, human BTK purified from baculovirus Sf21 insect cell system), inhibitor, ATP ([…] the apparent Km for the kinase), fluorescently labeled peptide substrate (1 μM, FAM-GEEPLYWSFPAKKK-NH2) in a reaction buffer composed of 100 mM HEPES, pH7.5, 5 mM MgCl2 1 mM DTT, 0.1% bovine serum albumin, 0.01% Triton X-100, and 1% DMSO. The reaction is incubated for one hour and is quenched by the addition of 45 μL of termination buffer (100 mM HEPES, pH7.5, 0.01% Triton X-100, 30 mM EDTA). The terminated reactions are analyzed using 12 channel LabChip® 3000 microfluidic detection instrument (Caliper Life Sciences). The enzymatic phosphorylation of the peptide results in a change in net charge, enabling electrophoretic separation of product from substrate peptide. As substrate and product peptides are separated, two peaks of fluorescence are observed. Change in the relative fluorescence intensity of the substrate and product peaks is the parameter measured, reflecting enzyme activity. In the presence of an inhibitor, the ratio between product and substrate is altered: the signal of the product decreases, while the signal of the substrate increases.
(§4) Activity in each sample is determined as the product to sum ratio (PSR):P/(S+P), where P is the peak height of the product peptide and S is the peak height of the substrate peptide. For each compound, enzyme activity is measured at various concentrations (12 concentrations of compound spaced by 3× dilution intervals). Negative control samples (0%-inhibition in the absence of inhibitor) and positive control samples (100%-inhibition, in the presence of 20 mM EDTA) are assembled in replicates of four and are used to calculate %-inhibition values for each inhibitor at each concentration. Percent inhibition (Pinh) is determined using following equation: […]

[2] = biological target: LCK (Homo sapiens, UniProt P06239); test: Inhibition of a panel of kinases: LCK
LCK, sequence (P06239 whole entry, species assumed): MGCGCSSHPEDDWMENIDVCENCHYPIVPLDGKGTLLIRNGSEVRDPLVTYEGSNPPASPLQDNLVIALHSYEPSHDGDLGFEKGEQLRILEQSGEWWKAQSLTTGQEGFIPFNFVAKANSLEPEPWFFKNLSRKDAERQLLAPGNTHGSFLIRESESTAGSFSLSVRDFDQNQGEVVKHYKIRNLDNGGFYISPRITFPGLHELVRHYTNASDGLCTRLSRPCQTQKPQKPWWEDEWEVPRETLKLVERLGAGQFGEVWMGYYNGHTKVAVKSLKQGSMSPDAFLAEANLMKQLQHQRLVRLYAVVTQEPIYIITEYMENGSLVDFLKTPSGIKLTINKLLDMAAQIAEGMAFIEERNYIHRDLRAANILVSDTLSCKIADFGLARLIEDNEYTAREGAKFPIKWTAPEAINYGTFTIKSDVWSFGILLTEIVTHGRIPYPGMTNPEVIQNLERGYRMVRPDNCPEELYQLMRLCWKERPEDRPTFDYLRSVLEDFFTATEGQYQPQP
Procedure: as §1, §2, §3, §4

[3] = biological target: T1, BTK (Homo sapiens, UniProt Q06187); test: Btk in vitro inhibitory activity / inhibition of a panel of kinases (TR-FRET, mobility shift or radiometric filter binding)
T1 construct: purified from insect cells as a full-length construct containing a N-terminal 6×-His tag; His6 (N); made in house; host or cells: insect cells (baculovirus, Sf21)
T1 sequence (Q06187 whole entry): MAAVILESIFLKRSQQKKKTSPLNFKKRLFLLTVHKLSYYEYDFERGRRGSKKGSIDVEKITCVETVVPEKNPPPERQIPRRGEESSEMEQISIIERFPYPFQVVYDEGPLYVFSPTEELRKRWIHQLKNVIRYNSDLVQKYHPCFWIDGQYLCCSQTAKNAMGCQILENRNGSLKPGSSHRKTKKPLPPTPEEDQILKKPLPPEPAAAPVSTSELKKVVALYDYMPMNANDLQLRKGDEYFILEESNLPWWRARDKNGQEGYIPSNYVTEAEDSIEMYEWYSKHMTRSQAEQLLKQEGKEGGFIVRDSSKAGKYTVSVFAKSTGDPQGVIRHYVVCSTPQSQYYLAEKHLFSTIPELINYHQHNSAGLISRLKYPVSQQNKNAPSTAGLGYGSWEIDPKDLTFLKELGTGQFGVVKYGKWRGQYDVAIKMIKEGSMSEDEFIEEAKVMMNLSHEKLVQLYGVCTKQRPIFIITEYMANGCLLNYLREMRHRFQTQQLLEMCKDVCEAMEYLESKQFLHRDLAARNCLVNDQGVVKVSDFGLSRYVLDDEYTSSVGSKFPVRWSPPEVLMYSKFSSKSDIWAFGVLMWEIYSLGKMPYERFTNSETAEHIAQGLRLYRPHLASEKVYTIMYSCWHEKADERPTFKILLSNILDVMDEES
Procedure: as §1, §2, §3, §4

EGFR, sequence (P00533 25-1210, species assumed): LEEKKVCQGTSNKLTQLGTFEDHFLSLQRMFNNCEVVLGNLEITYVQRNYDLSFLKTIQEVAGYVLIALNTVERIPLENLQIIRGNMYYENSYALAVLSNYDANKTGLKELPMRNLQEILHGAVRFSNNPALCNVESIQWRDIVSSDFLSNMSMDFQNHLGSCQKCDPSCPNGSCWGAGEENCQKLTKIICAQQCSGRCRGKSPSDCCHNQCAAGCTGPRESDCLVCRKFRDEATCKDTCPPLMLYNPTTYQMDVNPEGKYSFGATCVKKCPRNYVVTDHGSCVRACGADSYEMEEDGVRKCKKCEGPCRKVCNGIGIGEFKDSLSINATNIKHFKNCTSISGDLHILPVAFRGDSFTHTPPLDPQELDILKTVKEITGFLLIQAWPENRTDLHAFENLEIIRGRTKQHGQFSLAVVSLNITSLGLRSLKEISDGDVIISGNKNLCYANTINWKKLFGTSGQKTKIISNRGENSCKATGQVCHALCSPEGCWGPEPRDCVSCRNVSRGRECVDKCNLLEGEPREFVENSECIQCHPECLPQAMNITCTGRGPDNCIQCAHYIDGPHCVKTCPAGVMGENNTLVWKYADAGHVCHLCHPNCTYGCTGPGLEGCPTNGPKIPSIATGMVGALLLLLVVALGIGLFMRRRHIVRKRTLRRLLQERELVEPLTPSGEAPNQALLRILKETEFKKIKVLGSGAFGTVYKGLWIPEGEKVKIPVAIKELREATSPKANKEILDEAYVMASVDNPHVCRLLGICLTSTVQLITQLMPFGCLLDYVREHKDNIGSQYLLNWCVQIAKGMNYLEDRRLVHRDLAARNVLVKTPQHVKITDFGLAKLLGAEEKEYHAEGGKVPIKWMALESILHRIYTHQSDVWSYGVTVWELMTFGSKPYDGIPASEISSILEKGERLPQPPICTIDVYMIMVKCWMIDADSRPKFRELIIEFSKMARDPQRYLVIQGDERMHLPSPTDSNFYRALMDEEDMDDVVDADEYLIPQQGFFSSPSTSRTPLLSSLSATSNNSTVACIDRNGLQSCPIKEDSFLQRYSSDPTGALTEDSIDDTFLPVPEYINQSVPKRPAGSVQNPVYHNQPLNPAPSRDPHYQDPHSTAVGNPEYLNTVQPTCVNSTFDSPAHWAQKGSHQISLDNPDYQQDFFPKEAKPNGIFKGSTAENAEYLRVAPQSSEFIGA

IC50 [1] [nM]	IC50 [2] [nM]	IC50 [3] [nM]	SMILES
1000 to 10000	< 100	< 100	Cc1c(-c2ccc(Oc3ccccc3)cc2)c2c(N)ncnc2n1[C@@H]1CCN(C(=O)/C=C/CN(C)C2CC2)C1 [Compound 12, (R,E)-1-(3-(4-amino-6-methyl-5-(4-phenoxyphenyl)-7H-pyrrolo[2,3-d]pyrimidin-7-yl)pyrrolidin-1-yl)-4-(cyclopropyl(methyl)amino)but-2-en-1-one]
1000 to 10000	< 100	< 100	CN(C)C/C=C/C(=O)N1CC[C@@H](n2c(F)c(-c3ccc(Oc4ccccc4)cc3)c3c(N)ncnc32)C1 [Compound 13, (R,E)-1-(3-(4-amino-6-fluoro-5-(4-phenoxyphenyl)-7H-pyrrolo[2,3-d]pyrimidin-7-yl)pyrrolidin-1-yl)-4-(dimethylamino)but-2-en-1-one]
1000 to 10000	< 100	< 100	CN(C)C/C=C/C(=O)N1CC[C@@H](n2c(Cl)c(-c3ccc(Oc4ccccc4)cc3)c3c(N)ncnc32)C1 [Compound 14, (R,E)-1-(3-(4-amino-6-chloro-5-(4-phenoxyphenyl)-7H-pyrrolo[2,3-d]pyrimidin-7-yl)pyrrolidin-1-yl)-4-(dimethylamino)but-2-en-1-one]
1000 to 10000	< 100	< 100	CN(C/C=C/C(=O)N1CC[C@@H](n2c(Cl)c(-c3ccc(Oc4ccccc4)cc3)c3c(N)ncnc32)C1)C1CC1 [Compound 8, (R,E)-1-(3-(4-amino-6-chloro-5-(4-phenoxyphenyl)-7H-pyrrolo[2,3-d]pyrimidin-7-yl)pyrrolidin-1-yl)-4-(cyclopropyl(methyl)amino)but-2-en-1-one]
–	–	< 100	CN(C/C=C/C(=O)N1CC[C@@H](n2c(C(=O)O)c(-c3ccc(Oc4ccccc4)cc3)c3c(N)ncnc32)C1)C1CC1 [Compound 128, (R,E)-4-amino-7-(1-(4-(cyclopropyl(methyl)amino)but-2-enoyl)pyrrolidin-3-yl)-5-(4-phenoxyphenyl)-7H-pyrrolo[2,3-d]pyrimidine-6-carboxylic acid]
–	–	< 100	CN(C/C=C/C(=O)N1CC[C@@H](n2c(Cl)c(-c3ccc(Oc4ccccc4)cc3)c3c(N)ncnc32)C1)[C@@H]1CCOC1 [Compound 57, (E)-1-((R)-3-(4-amino-6-chloro-5-(4-phenoxyphenyl)-7H-pyrrolo[2,3-d]pyrimidin-7-yl)pyrrolidin-1-yl)-4-(methyl((R)-tetrahydrofuran-3-yl)amino)but-2-en-1-one]
–	–	< 100	CN(C/C=C/C(=O)N1CC[C@@H](n2c(Cl)c(-c3ccc(Oc4ccccc4)cc3)c3c(N)ncnc32)C1)[C@H]1CCOC1 [Compound 56, (E)-1-((R)-3-(4-amino-6-chloro-5-(4-phenoxyphenyl)-7H-pyrrolo[2,3-d]pyrimidin-7-yl)pyrrolidin-1-yl)-4-(methyl((S)-tetrahydrofuran-3-yl)amino)but-2-en-1-one]
–	–	< 100	COCCN(C)C/C=C/C(=O)N1CC[C@@H](n2c(C)c(-c3ccc(Oc4ccccc4)cc3)c3c(N)ncnc32)C1 [Compound 61, (R,E)-1-(3-(4-amino-6-methyl-5-(4-phenoxyphenyl)-7H-pyrrolo[2,3-d]pyrimidin-7-yl)pyrrolidin-1-yl)-4-((2-methoxyethyl)(methyl)amino)but-2-en-1-one]
–	–	< 100	C#Cc1c(-c2ccc(Oc3ccccc3)cc2)c2c(N)ncnc2n1[C@@H]1CCN(C(=O)/C=C/CN(C)C2CC2)C1 [Compound 112, (R,E)-1-(3-(4-amino-6-ethynyl-5-(4-phenoxyphenyl)-7H-pyrrolo[2,3-d]pyrimidin-7-yl)pyrrolidin-1-yl)-4-(cyclopropyl(methyl)amino)but-2-en-1-one]

Second part, the compound before the results:

SMILES	IC50 [1] [nM]	IC50 [2] [nM]	IC50 [3] [nM]
C=CC(=O)N1CC[C@@H](n2c(OC)c(-c3ccc(Cl)cc3)c3c(N)ncnc32)C1 [Compound 46, (R)-1-(3-(4-amino-5-(4-chlorophenyl)-6-methoxy-7H-pyrrolo[2,3-d]pyrimidin-7-yl)pyrrolidin-1-yl)prop-2-en-1-one]	< 100	100 to 1000	< 100
C=CC(=O)N1CC[C@@H](n2c(C)c(-c3ccc(Cl)cc3)c3c(N)ncnc32)C1 [Compound 44, (R)-1-(3-(4-amino-5-(4-chlorophenyl)-6-methyl-7H-pyrrolo[2,3-d]pyrimidin-7-yl)pyrrolidin-1-yl)prop-2-en-1-one]	< 100	100 to 1000	< 100
C=CC(=O)N1CC[C@@H](n2c(F)c(-c3ccc(Cl)cc3)c3c(N)ncnc32)C1 [Compound 42, (R)-1-(3-(4-amino-5-(4-chlorophenyl)-6-fluoro-7H-pyrrolo[2,3-d]pyrimidin-7-yl)pyrrolidin-1-yl)prop-2-en-1-one]	< 100	100 to 1000	< 100
CN(C/C=C/C(=O)N1CC[C@@H](n2c(Cl)c(-c3ccc(Cl)cc3)c3c(N)ncnc32)C1)C1CC1 [Compound 38, (R,E)-1-(3-(4-amino-6-chloro-5-(4-chlorophenyl)-7H-pyrrolo[2,3-d]pyrimidin-7-yl)pyrrolidin-1-yl)-4-(cyclopropyl(methyl)amino)but-2-en-1-one]	–	1000 to 10000	< 100
COCCN(C)C/C=C/C(=O)N1CC[C@@H](n2c(C3CC3)c(-c3ccc(Oc4ccccc4)cc3)c3c(N)ncnc32)C1 [Compound 96, (R,E)-1-(3-(4-amino-6-cyclopropyl-5-(4-phenoxyphenyl)-7H-pyrrolo[2,3-d]pyrimidin-7-yl)pyrrolidin-1-yl)-4-((2-methoxyethyl)(methyl)amino)but-2-en-1-one]	–	–	< 100
CN(C/C=C/C(=O)N1CC[C@@H](n2c(Cl)c(-c3ccc(Oc4cccc(F)c4)cc3)c3c(N)ncnc32)C1)C1CC1 [Compound 60, (R,E)-1-(3-(4-amino-6-chloro-5-(4-(3-fluorophenoxy)phenyl)-7H-pyrrolo[2,3-d]pyrimidin-7-yl)pyrrolidin-1-yl)-4-(cyclopropyl(methyl)amino)but-2-en-1-one]	–	–	< 100
Cc1c(-c2ccc(OCc3cnn[nH]3)cc2)c2c(N)ncnc2n1[C@@H]1CCN(C(=O)/C=C/CN(C)C2CC2)C1 [Compound 86, (R,E)-1-(3-(5-(4-((1H-1,2,3-triazol-5-yl)methoxy)phenyl)-4-amino-6-methyl-7H-pyrrolo[2,3-d]pyrimidin-7-yl)pyrrolidin-1-yl)-4-(cyclopropyl(methyl)amino)but-2-en-1-one]	–	–	< 100
COc1c(-c2ccc(Oc3cccc(F)c3)cc2)c2c(N)ncnc2n1[C@@H]1CCN(C(=O)/C=C/CN(C)C2CC2)C1 [Compound 92, (R,E)-1-(3-(4-amino-5-(4-(3-fluorophenoxyl)phenyl)-6-methoxy-7H-pyrrolo[2,3-d]pyrimidin-7-yl)pyrrolidin-1-yl)-4-(cyclopropyl(methyl)amino)but-2-en-1-one]	–	–	< 100
Cc1c(-c2ccc(Cl)cc2)c2c(N)ncnc2n1-c1cccc(N(C)C(=O)/C=C/CN(C)C2CC2)c1 [Compound 48, (E)-N-(3-(4-amino-5-(4-chlorophenyl)-6-methyl-7H-pyrrolo[2,3-d]pyrimidin-7-yl)phenyl)-4-(cyclopropyl(methyl)amino)-N-methylbut-2-enamide]	–	–	< 100
Cc1c(-c2ccc(Oc3cccc(F)c3)cc2)c2c(N)ncnc2n1[C@@H]1CCN(C(=O)/C=C/CN(C)C2CC2)C1 [Compound 53, (R,E)-1-(3-(4-amino-5-(4-(3-fluorophenoxyl)phenyl)-6-methyl-7H-pyrrolo[2,3-d]pyrimidin-7-yl)pyrrolidin-1-yl)-4-(cyclopropyl(methyl)amino)but-2-en-1-one]	–	–	< 100
